From ChEMBL document CHEMBL1201862, “PubChem BioAssay data set” (2004)
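In this assay, cells in 96-well plates receive the compound at five concentrations for 48 hours. Endpoints are linearly interpolated between the surrounding concentrations. At the GI50, growth is halved.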 Active and inactive are the calls of the source. Rule as the data show it: active = GI50 up to about 1.1 µM and inactive = higher.

Columns and labels:
Assay in all cases: growth of human tumour cells (NCI), 48 h
[1] = tested on: SNB-19
[2] = tested on: A549
[3] = tested on: SK-MEL-2
[4] = tested on: SF-295
[5] = tested on: K562
[6] = tested on: UACC-257
[7] = tested on: NCI-H522
[8] = tested on: EKVX
[9] = tested on: HL-60
[10] = tested on: MDA-MB-435
[11] = tested on: SNB-75
[12] = tested on: MCF7
[13] = tested on: SW-620
[14] = tested on: NCI-H460
[15] = tested on: A498
[16] = tested on: BT-549
[17] = tested on: OVCAR-4
[18] = tested on: UACC-62
[19] = tested on: HT-29
[20] = tested on: NCI/ADR-RES

SMILES | GI50 [1] | GI50 [2] | GI50 [3] | GI50 [4] | GI50 [5] | GI50 [6] | GI50 [7] | GI50 [8] | GI50 [9] | GI50 [10] | GI50 [11] | GI50 [12] | GI50 [13] | GI50 [14] | GI50 [15] | GI50 [16] | GI50 [17] | GI50 [18] | GI50 [19] | GI50 [20]
Brc1ccc(-c2[nH]c3ccccc3c2/N=N\c2ccccc2)cc1 | 20.9 µM (inactive) | 16.6 µM (inactive) | 20.5 µM (inactive) | 18.8 µM (inactive) | 23.2 µM (inactive) | 19.3 µM (inactive) | 17.6 µM (inactive) | 16.6 µM (inactive) | 26.8 µM (inactive) | 19.1 µM (inactive) | 19.5 µM (inactive) | 16.1 µM (inactive) | 17.5 µM (inactive) | 17.1 µM (inactive) | 25.4 µM (inactive) | 22 µM (inactive) | 16.3 µM (inactive) | 19.8 µM (inactive) | – | –
CC(C)(C)OC(=O)NC(Cc1ccc(OC(C)(C)C)cc1)C(=O)N[C@H]1CCC[C@H]1C(=O)NC(Cc1ccccc1)C(=O)N1CCCC1C(N)=O (some centres undefined) | > 100 µM (inactive) | > 100 µM (inactive) | > 100 µM (inactive) | > 100 µM (inactive) | > 100 µM (inactive) | > 100 µM (inactive) | > 100 µM (inactive) | > 100 µM (inactive) | – | > 100 µM (inactive) | > 100 µM (inactive) | > 100 µM (inactive) | > 100 µM (inactive) | > 100 µM (inactive) | > 100 µM (inactive) | – | > 100 µM (inactive) | > 100 µM (inactive) | > 100 µM (inactive) | > 100 µM (inactive)
COc1ccc2c[n+](C)c3c4cc(OC)c(OC)cc4ccc3c2c1 | 2.52 µM (inactive) | 0.53 µM (active) | 10.9 µM (inactive) | 5.13 µM (inactive) | 2.43 µM (inactive) | 20.7 µM (inactive) | 2.03 µM (inactive) | 13.1 µM (inactive) | 8.07 µM (inactive) | 13.7 µM (inactive) | 2.47 µM (inactive) | – | 2.23 µM (inactive) | 3.91 µM (inactive) | 45.8 µM (inactive) | 2.85 µM (inactive) | 8.09 µM (inactive) | 18.5 µM (inactive) | 4.1 µM (inactive) | > 100 µM (inactive)
c1ccc2c[n+](Cc3ccnc4ccccc34)ccc2c1 | > 100 µM (inactive) | > 100 µM (inactive) | > 100 µM (inactive) | > 100 µM (inactive) | > 100 µM (inactive) | > 100 µM (inactive) | > 100 µM (inactive) | 71 µM (inactive) | – | > 100 µM (inactive) | – | > 100 µM (inactive) | > 100 µM (inactive) | > 100 µM (inactive) | > 100 µM (inactive) | > 100 µM (inactive) | > 100 µM (inactive) | > 100 µM (inactive) | 51.8 µM (inactive) | > 100 µM (inactive)
CC(=O)O[C@@H]1C2=C(C)C=C(O2)[C@H]2O[C@]2(C)C[C@H]2C=C(C(=O)O2)[C@H](OC(C)=O)CC1[C@@]1(C)CO1 (some centres undefined) | > 100 µM (inactive) | 45.3 µM (inactive) | 56.1 µM (inactive) | 36.1 µM (inactive) | 17 µM (inactive) | 28.1 µM (inactive) | 3.23 µM (inactive) | 26.2 µM (inactive) | – | 23.5 µM (inactive) | 42.5 µM (inactive) | 18 µM (inactive) | 12.8 µM (inactive) | 37 µM (inactive) | > 100 µM (inactive) | 21.1 µM (inactive) | 27.7 µM (inactive) | 21.7 µM (inactive) | 25.4 µM (inactive) | 29.4 µM (inactive)
O=[N+]([O-])/C(C(Cl)=C(Cl)Cl)=C(\Nc1ccccc1)n1nnc2ccccc21 | 41.7 µM (inactive) | > 100 µM (inactive) | 27.2 µM (inactive) | 44.7 µM (inactive) | > 100 µM (inactive) | > 100 µM (inactive) | – | > 100 µM (inactive) | – | 26.8 µM (inactive) | > 100 µM (inactive) | 55.8 µM (inactive) | 32.2 µM (inactive) | 77.8 µM (inactive) | > 100 µM (inactive) | 27 µM (inactive) | 17.6 µM (inactive) | 40 µM (inactive) | 44.8 µM (inactive) | 41.6 µM (inactive)
C/C(=C\c1ccccc1)C(=O)NCc1ccc(C(=O)NCCc2c[nH]c3ccccc23)cc1 | > 100 µM (inactive) | > 100 µM (inactive) | > 100 µM (inactive) | > 100 µM (inactive) | > 100 µM (inactive) | 13.6 µM (inactive) | 69 µM (inactive) | 48.9 µM (inactive) | – | 78 µM (inactive) | > 100 µM (inactive) | 24.3 µM (inactive) | > 100 µM (inactive) | 25.9 µM (inactive) | 22 µM (inactive) | > 100 µM (inactive) | 86.5 µM (inactive) | 14 µM (inactive) | > 100 µM (inactive) | > 100 µM (inactive)
Cc1ccc(S(=O)(=O)NNC(=S)Nc2cccc3ccccc23)cc1 | 68.1 µM (inactive) | 49.4 µM (inactive) | 4.45 µM (inactive) | 34.7 µM (inactive) | 35.5 µM (inactive) | 13.8 µM (inactive) | 16.7 µM (inactive) | 38.3 µM (inactive) | 28.3 µM (inactive) | 41.5 µM (inactive) | 27.9 µM (inactive) | 31.6 µM (inactive) | > 100 µM (inactive) | > 100 µM (inactive) | 39.1 µM (inactive) | – | 22.3 µM (inactive) | 32.1 µM (inactive) | 56.5 µM (inactive) | 38.1 µM (inactive)
CC(=O)Oc1ccc(/C=C/C(=O)NCC(NC(=O)/C=C/c2ccc(OC(C)=O)c(OC(C)=O)c2)C(=O)O)cc1OC(C)=O (centres undefined) | > 100 µM (inactive) | > 100 µM (inactive) | > 100 µM (inactive) | > 100 µM (inactive) | 56.2 µM (inactive) | > 100 µM (inactive) | 46.8 µM (inactive) | > 100 µM (inactive) | – | > 100 µM (inactive) | – | > 100 µM (inactive) | > 100 µM (inactive) | > 100 µM (inactive) | > 100 µM (inactive) | > 100 µM (inactive) | > 100 µM (inactive) | > 100 µM (inactive) | 50.8 µM (inactive) | > 100 µM (inactive)
C[n+]1ccc(Nc2ccc(NC(=O)c3ccc(Nc4cc[n+](C)c5ccc([N+](=O)[O-])cc45)cc3[N+](=O)[O-])cc2)cc1 | > 59.2 µM (inactive) | 22 µM (inactive) | 50.1 µM (inactive) | 27.8 µM (inactive) | 20.8 µM (inactive) | 23.6 µM (inactive) | 13.8 µM (inactive) | 47.6 µM (inactive) | – | – | > 60.1 µM (inactive) | – | – | 23.7 µM (inactive) | 64 µM (inactive) | – | 34.5 µM (inactive) | 31.3 µM (inactive) | > 100 µM (inactive) | > 52.4 µM (inactive)
O=C(Nc1cccc(C(F)(F)F)c1)c1cc(Br)cc(Br)c1O [FLUOROSALAN] | 2.77 µM (inactive) | 2.83 µM (inactive) | 2.32 µM (inactive) | 2.62 µM (inactive) | 2.08 µM (inactive) | 2.52 µM (inactive) | 3 µM (inactive) | 2.19 µM (inactive) | 2.34 µM (inactive) | 3.2 µM (inactive) | 3.35 µM (inactive) | 2.89 µM (inactive) | 3.9 µM (inactive) | 3.02 µM (inactive) | – | – | 3.68 µM (inactive) | 3.56 µM (inactive) | 3.91 µM (inactive) | 2.36 µM (inactive)
